The record followed here is article PMC10011747, “Targeting androgen receptor and the variants by an orally bioavailable Proteolysis Targeting Chimeras compound in castration resistant prostate cancer” (eBioMedicine, 2023).

This experiment deals with T1, full-length AR (Homo sapiens, UniProt P10275, T878A).
T1 construct: calculated based on normalized full-length AR and AR-V7 band intensity; endogenous in cells; host or cells: LNCaP, CWR22Rv1, VCaP
T1 sequence (P10275 1-920 T878A): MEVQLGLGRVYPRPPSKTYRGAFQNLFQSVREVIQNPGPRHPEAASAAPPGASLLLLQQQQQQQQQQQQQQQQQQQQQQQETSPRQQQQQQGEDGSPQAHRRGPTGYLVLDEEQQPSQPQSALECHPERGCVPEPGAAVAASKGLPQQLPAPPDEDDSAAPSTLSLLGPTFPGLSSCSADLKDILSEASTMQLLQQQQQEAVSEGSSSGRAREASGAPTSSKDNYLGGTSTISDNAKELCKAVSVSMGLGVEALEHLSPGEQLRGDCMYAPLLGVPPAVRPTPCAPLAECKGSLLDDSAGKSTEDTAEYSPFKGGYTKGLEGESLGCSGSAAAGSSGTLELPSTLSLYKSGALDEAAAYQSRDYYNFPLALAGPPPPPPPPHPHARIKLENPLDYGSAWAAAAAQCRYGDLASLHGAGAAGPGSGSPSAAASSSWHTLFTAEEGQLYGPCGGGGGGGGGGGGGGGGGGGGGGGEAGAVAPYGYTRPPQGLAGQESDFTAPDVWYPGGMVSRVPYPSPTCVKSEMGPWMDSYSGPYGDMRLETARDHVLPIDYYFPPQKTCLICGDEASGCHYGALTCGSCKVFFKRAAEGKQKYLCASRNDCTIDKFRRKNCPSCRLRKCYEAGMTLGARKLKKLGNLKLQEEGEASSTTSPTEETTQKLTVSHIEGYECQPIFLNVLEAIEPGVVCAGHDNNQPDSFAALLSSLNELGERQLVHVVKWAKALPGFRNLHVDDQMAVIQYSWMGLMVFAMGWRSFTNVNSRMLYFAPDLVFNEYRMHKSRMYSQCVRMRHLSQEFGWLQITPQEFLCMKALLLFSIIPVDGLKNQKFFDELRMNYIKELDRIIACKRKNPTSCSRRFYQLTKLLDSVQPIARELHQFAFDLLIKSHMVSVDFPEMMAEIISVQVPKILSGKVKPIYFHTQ
The experiment is described as follows: AR degradation by western blot in prostate cancer cell lines. In kind it is cell-based. The settings on record: LNCaP cells; for DC50: 24 h treatment; for Dmax at 20 µM: maximum degradation at 20 μM. Here is the method: To obtain total lysates, cells were lysed in RIPA buffer (50 mM Tris–HCl pH 8.0, 150 mM NaCl, 1% NP-40, 0.5% Na-deoxycholate, 0.5% SDS plus protease inhibitors). The lysates were resolved by SDS-polyacrylamide gel electrophoresis, and the protein expression was analyzed by western blotting using primary antibodies against AR (Millipore Cat# 06-680, RRID:AB_310214), AR-V7 (RevMAb Biosciences Cat# 31-1109-00, RRID:AB_2716436), GAPDH (Cell Signaling Technology Cat# 2118, RRID:AB_561053) and Actin (Sigma–Aldrich Cat# A5441, RRID:AB_476744). pLenti4/TO/Flag-AR or pLenti4/TO/Flag-TC-AR plasmid was co-transfected with HA-ubiquitin plasmid into 293T cells. 24 h after transfection, the cells were treated with 10 μM of the PROTAC compounds for 16 h, followed by 4-h treatment of 5 μM MG132. The cells were lysed with lysis buffer (50 mM Tris–HCl pH7.5, 150 mM NaCl, 0. 5% Triton X-100, 10% glycerol, 1 mM EDTA plus protease inhibitors) containing 1 ng/mL of N-ethylmaleimide, followed by immunoprecipitation with anti-Flag M2 (Sigma–Aldrich Cat# F3165, RRID:AB_259529) antibody. The ubiquitinated AR was then detected by western blotting using anti-HA (Sigma–Aldrich Cat# H3663, RRID:AB_262051) antibody.
Fig. 1 PROTAC-based AR degraders ITRI-90, ITRI-125 and ITRI-126 reduce AR and AR-V7 proteins in prostate cancer cell lines. (a) Chemical structure of the PROTAC AR degraders. (b) Representative western blots of AR protein levels in LNCaP, CWR22Rv1 and VCaP cells treated with the PROTAC degraders for 24 h. AR was detected by N-terminal antibody which also detects C-terminal truncated AR-V(ΔLBD) in CWR22Rv1 cells. AR-V7 specific antibody was used for AR-V7 detection. 4%–12% gradient gel was used to separate different species of AR-V(ΔLBD) near 75 kDa in CWR22Rv1 cell lysates. DC50 indicating the concentration required to achieve 50% degradation, was calculated based on normalized full-length AR and AR-V7 band intensity. Dmax is the maximum degradation achieved at 20 μM compound treatment. TEXT PRINTED IN THE PICTURE: (a) ITRI-90: AR DC50 (μM) LNCaP: 2.12 ± 0.93; AR DC50 (μM) CWR22Rv1: 5.73 ± 2.28; AR DC50 (μM) VCaP: 8.67 ± 4.87; AR-V7 DC50 (μM) CWR22Rv1: 4.72 ± 2.52; AR-V7 DC50 (μM) VCaP: 0.29 ± 0.15; AR Dmax (%) LNCaP: 88; AR Dmax (%) CWR22Rv1: 98; AR Dmax (%) VCaP: 90; AR-V7 Dmax (%) CWR22Rv1: 100; AR-V7 Dmax (%) VCaP: 63 | (a) ITRI-125: AR DC50 (μM) LNCaP: 6.10 ± 4.43; AR DC50 (μM) CWR22Rv1: 6.64 ± 1.87; AR DC50 (μM) VCaP: 9.05 ± 3.75; AR-V7 DC50 (μM) CWR22Rv1: 1.89 ± 1.06; AR-V7 DC50 (μM) VCaP: 0.52 ± 0.37; AR Dmax (%) LNCaP: 71; AR Dmax (%) CWR22Rv1: 96; AR Dmax (%) VCaP: 85; AR-V7 Dmax (%) CWR22Rv1: 99; AR-V7 Dmax (%) VCaP: 67 | (a) ITRI-126: AR DC50 (μM) LNCaP: 3.41 ± 3.13; AR DC50 (μM) CWR22Rv1: 0.11 ± 0.02; AR DC50 (μM) VCaP: 0.851 ± 0.43; AR-V7 DC50 (μM) CWR22Rv1: 0.011 ± 0.003; AR-V7 DC50 (μM) VCaP: 0.43 ± 0.19; AR Dmax (%) LNCaP: 99; AR Dmax (%) CWR22Rv1: 74; AR Dmax (%) VCaP: 94; AR-V7 Dmax (%) CWR22Rv1: 91; AR-V7 Dmax (%) VCaP: 82
Background: In western blotting, separated proteins are transferred to a membrane and probed.

For the compound `Cc1ncsc1-c1ccc(CNC(=O)[C@@H]2C[C@H](O)CN2C(=O)[C@@H](NC(=O)COCCCCCCOc2ccc(C3CCN(C4=Nn5c(nnc5C(F)(F)F)CC4)CC3)cc2)C(C)(C)C)cc1` [ITRI-125, (2S,4S)-1-((S)-3,3-dimethyl-2-(2-(6-(4-(1-(3-(trifluoromethyl)-7,8-dihydro-[1,2,4]triazolo[4,3-b]pyridazin-6-yl)piperidin-4-yl)phenoxy)hexyloxy)acetamido)butanoyl)-4-hydroxy-N-(4-(4-methylthiazol-5-yl)benzyl)pyrrolidine-2-carboxamide], the DC50 (usually the concentration at which degradation of the target reaches its halfway point) was 6.1 ± 4.43 µM and the Dmax – broadly, the greatest extent of degradation seen – at 20 µM was found to be 71%.
Turning to `Cc1ncsc1-c1ccc(CNC(=O)[C@@H]2C[C@H](O)CN2C(=O)[C@@H](NC(=O)COCCCCOc2ccc(C3CCN(C4=Nn5c(nnc5C(F)(F)F)CC4)CC3)cc2)C(C)(C)C)cc1` [ITRI-90, (2S,4S)-1-((S)-3,3-dimethyl-2-(2-(4-(4-(1-(3-(trifluoromethyl)-7,8-dihydro-[1,2,4]triazolo[4,3-b]pyridazin-6-yl)piperidin-4-yl)phenoxy)butoxy)acetamido)butanoyl)-4-hydroxy-N-(4-(4-methylthiazol-5-yl)benzyl)pyrrolidine-2-carboxamide], the DC50 turned out to be 2.12 ± 0.93 µM and the Dmax at 20 µM came to 88%.
The compound `O=C1CCC(N2Cc3c(NC(=O)COCCCCOc4ccc(C5CCN(C6=Nn7c(nnc7C(F)(F)F)CC6)CC5)cc4)cccc3C2=O)C(=O)N1` (stereo not drawn) [ITRI-126, N-(2-(2,6-dioxopiperidin-3-yl)-1-oxoisoindolin-4-yl)-2-(4-(4-(1-(3-(trifluoromethyl)-7,8-dihydro-[1,2,4]triazolo[4,3-b]pyridazin-6-yl)piperidin-4-yl)phenoxy)butoxy)acetamide] gave a DC50 of 3.41 ± 3.13 µM and a Dmax at 20 µM of 99%.
